According to PubChem BioAssay (NCI):
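Protocol summary: plate cells (96-well), add compound at 5 concentrations, incubate 48 h, interpolate endpoints linearly. Definition used: TGI = concentration required for complete inhibition of growth.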

Assays:
Assay in all cases: NCI tumour cell line growth inhibition, 48 h
HL-60(TB) leukemia = test system: HL-60(TB) leukemia
SF-295 CNS = test system: SF-295 CNS
KM12 colon = test system: KM12 colon
SNB-75 CNS = test system: SNB-75 CNS
SNB-19 CNS = test system: SNB-19 CNS
LOX IMVI melanoma = test system: LOX IMVI melanoma
A549 NSCLC = test system: A549 NSCLC
SR leukemia = test system: SR leukemia
MOLT-4 leukemia = test system: MOLT-4 leukemia
SK-MEL-2 melanoma = test system: SK-MEL-2 melanoma

SMILES | TGI (HL-60(TB) leukemia) [µM] | TGI (SF-295 CNS) [µM] | TGI (KM12 colon) [µM] | TGI (SNB-75 CNS) [µM] | TGI (SNB-19 CNS) [µM] | TGI (LOX IMVI melanoma) [µM] | TGI (A549 NSCLC) [µM] | TGI (SR leukemia) [µM] | TGI (MOLT-4 leukemia) [µM] | TGI (SK-MEL-2 melanoma) [µM]
COCCOCOC(C)(C)[C@H](CCO)O[Si](c1ccccc1)(c1ccccc1)C(C)(C)C | 9.05 | 18.6 | 31.9 | 21.6 | 31.7 | 23.3 | 22.1 | 16.3 | 22.9 | –
CN(CCNC(=S)c1cn(C)c2c1ccc1ccccc12)CCNC(=S)c1cn(C)c2c1ccc1ccccc12 | – | > 100 | > 100 | > 100 | > 100 | > 100 | > 100 | > 100 | > 100 | > 100
C/C(N=NS(=O)(=O)c1ccc(C)cc1)=C1\C=CC=CN1O | > 100 | > 100 | > 100 | > 100 | > 100 | – | > 100 | > 100 | > 100 | –
C=C[C@]1(O[Si](C)(C)C)C[C@@]2(C(=O)OCC)C(O)C(=O)N3CCc4cc(OC)c(OC)cc4[C@]312 (some centres not stated) | – | > 100 | > 100 | > 100 | > 100 | > 100 | > 100 | > 100 | > 100 | > 100
CC(=O)N(CC(=O)C(=O)NNc1ccoc1)c1ccc(Cl)cc1 | – | > 100 | > 100 | > 100 | > 100 | > 100 | > 100 | > 100 | > 100 | > 100
O=S(=O)(O)c1ccc2cc(N=Nc3c(O)ccc4ccccc34)ccc2c1 | > 100 | > 100 | > 100 | > 100 | > 100 | – | > 100 | > 100 | > 100 | > 100
C[C@H](NC(=O)CNC(=O)CCCCCC(=O)NCC(=O)N[C@@H](C)C(=O)OCc1ccccc1)C(=O)OCc1ccccc1 | – | > 100 | > 100 | > 100 | > 100 | > 100 | > 100 | > 100 | > 100 | > 100
C=CCNC(=O)CN(CC(=O)O)C1CCCCC1N(CC(=O)O)CC(=O)O (configuration not stated) | > 100 | > 100 | > 100 | > 100 | > 100 | > 100 | > 100 | > 100 | > 100 | –
Nc1c(Cl)cc(-c2nc3ccccc3s2)cc1Cl | > 100 | > 100 | > 100 | > 100 | > 100 | – | > 100 | > 100 | > 100 | > 100
O=c1[nH]c(=O)n(C2C(CO)OC(CO)C2O)cc1F (configuration not stated) | – | > 100 | > 100 | > 100 | > 100 | > 100 | > 100 | > 100 | > 100 | > 100
O=C(O)CC12CC3CC(CC(O)(C3)C1)C2 | – | > 100 | > 100 | > 100 | > 100 | > 100 | > 100 | > 100 | – | > 100
COC(=O)c1ccc(C=C(C#N)C#N)cc1 | 58.1 | 91.6 | 92.2 | 82.5 | > 100 | 50.3 | > 100 | – | 65.7 | 38.1
COC(=O)[C@@]1(NC(=O)C(CC(=O)OC(C)(C)C)NC(=O)OC(C)(C)C)C[C@H]1C (some centres not stated) | – | > 100 | > 100 | > 100 | > 100 | > 100 | > 100 | – | > 100 | > 100
Cc1ccc(/N=N/C(=NNC(=O)c2ccc(C)cc2)c2ccc(N(C)C)cc2)cc1 | 72.1 | 76.1 | 37 | – | 58.7 | > 100 | 87.9 | 45.1 | > 100 | > 100
O=c1ccn(/C=C/C(O)C(O)CO)c(=O)[nH]1 (configuration not stated) | > 100 | > 100 | 40.9 | > 100 | > 100 | > 100 | > 100 | – | > 100 | > 100
CCCC(=O)OCOC(=O)N(C)N=Nc1ccc(C(=O)OCC)cc1 | – | 53.8 | > 100 | > 100 | > 100 | 37 | > 100 | > 100 | > 100 | 36.3
CCOP(=O)(OCC)C(Cc1ccc(Cl)cc1)NS(=O)(=O)c1ccc(C)cc1 (configuration not stated) | > 100 | > 100 | > 100 | – | > 100 | > 100 | > 100 | – | > 100 | > 100
O=[N+]([O-])C(=C/c1cccc2ccccc12)/C(=C\c1cccc2ccccc12)[N+](=O)[O-] | – | 8.19 | 16 | 21.8 | 11.5 | 3.06 | > 58.6 | 9.03 | 8.59 | 55.3
CC(C)CCC[C@@H](C)[C@H]1CC[C@H]2C3=C[C@H](OS(=O)(=O)O)[C@@]4(O)C[C@@H](O)CC[C@]4(C)[C@@]3(O)CC[C@]12C | – | > 100 | > 100 | – | > 100 | > 100 | > 100 | > 100 | > 100 | > 100
CSc1ccc2c(cc1=O)C(NC(=O)c1ccc(C#N)cc1)CCc1cc(O)c(O)c(O)c1-2 (configuration not stated) | 51.9 | 74.7 | > 100 | 14.6 | > 100 | – | > 100 | 48.7 | 59 | –
COc1ccc(NC(=O)C(=O)Cc2nc3ccc(C(=O)c4ccccc4)cc3[nH]c2=O)c([N+](=O)[O-])c1 | – | > 100 | 64 | 90.2 | > 100 | > 100 | > 100 | 51.1 | 40.1 | > 100
S=C(N/N=C/c1ccccn1)N1CCCCCC1 | – | > 100 | 63.3 | 0.987 | > 100 | 64.1 | 29.1 | 0.93 | – | 24.8
NC(=O)c1sc2nc3ccccc3n2c1N | > 100 | 50.8 | – | 79.1 | > 100 | > 100 | > 100 | – | > 100 | 99.2
N#Cc1c(-c2ccccc2)cc(-c2ccccc2)n(C2OCC(O)C(O)C2O)c1=S (configuration not stated) | – | 39 | 27.2 | 66.3 | 89.7 | 31.9 | 57.4 | – | > 100 | 62.3
